Earlier results as cited in PMC3166015 (Emerging Infectious Diseases, 2011).

Test system: earliest pandemic (H1N1) 2009 virus isolates
Details: cited from earlier work

Compound	susceptibility of earliest virus isolates
NC12CC3CC(CC(C3)C1)C2 [amantadine]	resistant
CCOC(=O)C1=C[C@@H](OC(CC)CC)[C@H](NC(C)=O)[C@@H](N)C1 [Oseltamivir, oseltamivir]	sensitive
CC(N)C12CC3CC(CC(C3)C1)C2 (stereo not shown) [rimantadine]	resistant
CC(=O)N[C@H]1[C@H]([C@H](O)[C@H](O)CO)OC(C(=O)O)=C[C@@H]1N=C(N)N [Zanamivir, zanamivir]	sensitive
